Experiment [1] concerns human osteoblast hFOB 1.19 cell line. Nature of the experiment: AlamarBlue cytotoxicity, 2,2′-BPBPA series, hFOB 1.19. The format is cell-based. As to the method: (§1) Cell culture methods. MCF-7 and MDA-MB-231 were incubated using DMEM at 37° C. in 5% CO2. The hFOB 1.19 cell lines were incubated with DMEM: F12 at 34° C. in 5% CO2.
(§2) Cell lines were supplemented using 10% FBS and 1% Pen-Strep. The media was replaced twice per week. Cell passages were carried out at 80% confluency.
(§3) Cell-based assays. Cell lines were seeded in 96 well plates at a density of 5x 10^3 cells/mL and incubated for 24 h before treatment. Cells were treated with 100 μL of 2,2′-BPBPA (0-400 μM), unloaded and loaded nano-Ca@2,2′-BPBPA (6.3-50 μM) for 24, 48, and 72 h.
(§4) Control groups were treated with media (DMEM or DMEM: F12) supplemented with 1% Pen-Strep. Cell viability was determined by employing AlamarBLue@. The media was replaced with 100 μL of 10% AlamarBlue® solution. After 24 h of incubation, the fluorescence was assessed at )max of 560 nm for excitation and 590 nm for emission.
(§5) Cell culture methods. MCF-7 and MDA-MB-231 were incubated using DMEM at 37° C. in 5% CO2. The hFOB 1.19 cell lines were incubated with DMEM: F12 at 34° C. in 5% CO2. Cell lines were supplemented using 10% FBS and 1% Pen-Strep. The media was replaced twice times per week. Cell passages were carried out at 80% confluency.
Seeding. […]
AlamarBlue@assay. […] Then, the fluorescence was assessed at 560 nm of excitation and λmax 590 nm of emission. […]

For experiment [2], the system named is human breast cancer MCF-7 cell line. As to the kind of experiment: AlamarBlue cytotoxicity, 2,2′-BPBPA series, MCF-7. The format is cell-based. Here is the method: as §1, §2, §3, §4, §5
Seeding. Cell lines were seeded in 96 well plates at a density of 5×10^3 cells/mL; cells were incubated for 24 h before each treatment.
Treatment. Cell lines were treated with 100 μL of 2,2′-BPBPA (0-400 μM), unloaded and loaded nano-Ca@2,2′-BPBPA (6.3-50 μM). Control groups were treated with media (DMEM or DMEM: F12) supplemented with 1% Pen-Strep. All cell-based assays were conducted for 24, 48, and 72 h of treatment. Experiments were performed in triplicate.
AlamarBlue@assay. To determine the cell viability, the media was removed and replaced with 100 μL of 10% AlamarBlue® solution. The 96 well plates were incubated for 4 h before the measurements. Then, the fluorescence was assessed at 560 nm of excitation and λmax 590 nm of emission. The IC50 curves for MCF-7, MDA-MB-231, and hFOB 1.19 cell lines treated with 2,2′-BPBPA are presented in FIGS. 211A-211C, 212A-212C, and 213A-213C.

We go through two compounds from patent US20250296942A1, “Phosphonate-Based Coordination Complexes and Methods of Preparation and Use Thereof” (University of Puerto Rico, priority 2021, published 2025).

Structures are written as SMILES.

`N#Cc1ccc(C(c2ccc(C#N)cc2)n2cncn2)cc1` [LET, letrozole]: the “% RCL” value in experiment [1] (6.3-50 μM, 24, 48, 72 h) is listed as around 99%; in experiment [2] (6.3 μM, 24 h), “about 100±2%”; in experiment [2] (6.3 μM, 48 h), around 79 ±1%; in experiment [2] (6.3 μM, 72 h), around 74±3%; in experiment [2] (12.5 μM, 24 h) it was 100±2%; in experiment [2] (12.5 μM, 48 h), 71±3%. The “% RCL” value is given as 68±2% in experiment [2] (12.5 μM, 72 h); 100±1% in experiment [2] (25 μM, 24 h); 46±2% in experiment [2] (25 μM, 72 h); 99±1% in experiment [2] (50 μM, 24 h); 40±1% in experiment [2] (50 μM, 72 h).

In general, IC50 refers to the concentration that gives 50% inhibition. Lower therefore signals greater potency in that assay. For `O=P(O)(O)c1ccc(-c2ccc(P(=O)(O)O)cn2)nc1` [2,2′-BPBPA, 2,2′-bipyridine-5,5′-bisphosphonic acid], the IC50 in experiment [1] (Homo sapiens, Osteoblast, 72 h) is above 188 µM; in experiment [2] (Homo sapiens, MCF7, 72 h), 134 ± 2 µM.
